Experiments:
[1] = test system: Morris 3924A hepatoma; experiment: Morris 3924A rat hepatoma in vivo; settings: efavirenz 1 mg/rat/day from day of inoculation; two treated rats; controls died at 27th day
Procedure: Rat strain: ACI/T inbred (about 180 gr)
Tumor: Morris 3924A hepatoma is a fast-growing tumor which develops in inbred ACI/T animals. Three weeks after inoculation the tumor size is about 10 cm^3.
Preparation of tumor cells: hepatoma tumor cells are prepared from the animal about two weeks after inoculation. The tumor is surgically removed from the animal, separated from connective and necrotic tissues and minced in small pieces. Tumor fragments are then suspended in sterile physiological solution and inoculated in the internal site of one thigh using a 20 ml-syringe with a large size needle. Routinely 0.5 ml of cell suspension are injected. The success rate of tumor implantation is nearly 99%.
On the eleventh day, hepatoma cells were inoculated subcutaneously in pre-treated and in three non-treated control rats.
Procedures and Results: Morris hepatoma cells were inoculated in 4 rats ([…]). The same day, treatment with efavirenz was initiated in two of them by injecting 1 mg/rat/day.

[2] = test system: F9 teratocarcinoma cells; experiment: Cell proliferation by cell counting; assay type: cell-based, murine; settings: efavirenz 10 and 20 μM, dose-dependent, vs non-exposed cells
Procedure: (§1) NIH/3T3 embryo fibroblasts and F9 teratocarcinoma cells were cultured in DMEM containing 10-20% fetal serum and two concentrations of efavirenz, i.e. 10 and 20 μM, diluted from a stock solution (10 mM) in 100% DMSO. Cells were plated at a density of 2-5×10^4 in 35 mm Petri dishes and exposed to efavirenz 5-6 hours later. Samples were withdrawn at specific times and cells were counted in efavirenz-exposed compared to parallel non-exposed cell cultures.

[3] = test system: NIH/3T3 embryo fibroblasts; experiment: Cell proliferation by cell counting; assay type: cell-based, murine; settings: efavirenz 10 and 20 μM, dose-dependent, vs non-exposed cells
Procedure: as §1

[4] = test system: Saos-2 osteosarcoma cells; experiment: Cell proliferation by cell counting; assay type: cell-based, human; settings: 20 μM efavirenz
Procedure: Samples were withdrawn at specific times and cells were counted in nevirapine-exposed and control (DMSO-exposed) cultures. […] Saos-2 osteosarcoma cells were the most slowly responsive type, and only after 5 days of exposure did the growth rate begin to decrease compared to control cultures.
(§2) The effect of efavirenz was further tested in human HeLa adenocarcinoma and Saos-2 osteosarcoma cells. Both cell lines were cultured in the conditions described above (Example 6). To establish if prolonged exposure to the drug improved the effectiveness of growth inhibition, both cell lines were exposed to efavirenz in two subsequent cycles: during the 1st cycle cells were continuously exposed to 20 μM efavirenz for 5 days; cells were then diluted, reseeded again and the 2nd cycle exposure was initiated the following day with fresh drug. […] The inhibitory effect was time-dependent, since in both HeLa and Saos-2 cultures, the 1st cycle of exposure (5 days) yielded a 1.6- and 1.5-fold reduction, respectively, whereas a 5- and 4-fold reduction was obtained in the 2nd cycle (carried out until day 20 from the onset of exposure).

[5] = test system: early mouse embryos; experiment: Early mouse embryo cultures from in vitro fertilization (IVF) assays; settings: added to cultures of IVF embryos; preliminary studies
[6] = test system: HeLa adenocarcinoma cells; experiment: Cell proliferation by cell counting; assay type: cell-based, human; settings: 20 μM efavirenz
Procedure: as §2

[7] = test system: NB4 cells; experiment: Growth, viable cell count; assay type: cell-based, human; settings: NB4, RA 1 μM, 4 days
[8] = test system: HL60 cells; experiment: NBT dye reduction assay; assay type: cell-based, human; settings: HL60, RA 1 μM, 4 days
[9] = test system: NB4 cells; experiment: NBT dye reduction assay; assay type: cell-based, human; settings: NB4, RA 1 μM, 4 days
[10] = test system: HL60 cells; experiment: Cytofluorimetric analysis of cell surface markers; assay type: cell-based, human; settings: HL60, RA 1 μM, 4 days
Excerpt: (§3) The induction of CD11b is associated with granulocytic differentiation, CD14 is considered a monocytic specific antigen and CD15 is a myelomonocytic antigen. Simultaneous induction of CD14 and CD11b relates to monocytic differentiation. […] In nevirapine-treated NB4 and HL60 cells, a strong induction of expression of CD15, and, to a lesser degree, CD11b and CD14 markers was detected.

[11] = test system: NB4 cells; experiment: Cytofluorimetric analysis of cell surface markers; assay type: cell-based, human; settings: NB4, RA 1 μM, 4 days
Excerpt: as §3

[12] = test system: HL60 cells; experiment: Growth, viable cell count; assay type: cell-based, human; settings: HL60, RA 1 μM, 4 days
[13] = 2nd cycle (until day 20 from onset of exposure)

Structure (SMILES): O=C1Nc2ccc(Cl)cc2[C@@](C#CC2CC2)(C(F)(F)F)O1 [efavirenz, (−)-6-chloro-4-cyclopropylethynyl-4-trifluoromethyl-1,4,-dihydro-2H-3,1-benzoxazine-one]
- tumor development in treated rats [1]: only one of two treated animals developed a tumor of markedly smaller size, whereas the other remained totally healthy
- rate of proliferation [2]: decreases the rate of proliferation
- rate of proliferation [3]: decreases the rate of proliferation
- reduction in the rate of cell growth ([4]; 1st cycle of exposure (5 days)): 1.5 fold
- reduction in the rate of cell growth [4, 13]: 4 fold
- development of early mouse embryos [5]: early and effective developmental arrest
- reduction in the rate of cell growth ([6]; 1st cycle of exposure (5 days)): 1.6 fold
- reduction in the rate of cell growth [6, 13]: 5 fold

Structure (SMILES): CC1=C(/C=C/C(C)=C/C=C/C(C)=C/C(=O)O)C(C)(C)CCC1 [RA, retinoic acid]
- Viable cells N^0 × 10^5 [7]: 1.4 ± 0.1 × 10^5
- NBT+ (%) [8]: 31.2 ± 1.4%
- NBT+ (%) [9]: 80.6 ± 4.5%
- CD11b mean fluorescence intensity [10]: 15.3 AU
- CD14 mean fluorescence intensity [10]: 23.7 AU
- CD15 mean fluorescence intensity [10]: 609.7 AU
- CD11b mean fluorescence intensity [11]: 53.7 AU
- CD14 mean fluorescence intensity [11]: 19.1 AU
- CD15 mean fluorescence intensity [11]: 421.7 AU
- Viable cells N^0 × 10^5 [12]: 6.5 ± 0.9 × 10^5

— patent publication US10507207B2, “Non-nucleosidic inhibitors of reverse transcriptase as antagonists of cell proliferation and inducers of cell differentiation” (ISTITUTO SUPERIORE DI SANITA, priority 2001, dated 2019)
